In patent US20160346249A1 (priority 2012, published 2016):
Read-outs that look alike come from different tables or passages of the source.

Assays:
[1] = 26-week rat toxicity and toxicokinetic study; format: in vivo; details: for AUC(0-t): Crl:CD(SD)IGS BR, rat, plasma, po, 8 mg/kg/day, EB-1010 8 mg/kg/day, read-out: AUC0-24 of metabolite
Protocol: A portion of the animals from each group was maintained for an additional 4-week post-treatment recovery period.
For toxicology assessment, groups comprised thirty animals of each gender. Assessments included clinical observations, body weight, and food consumption measures noted periodically during the study. […] Ophthalmic examinations were performed during Weeks 1 and 13. […] In addition, the liver, vagina, and ovaries were identified as potential target tissues and were examined microscopically for all animals from all groups at the primary and recovery necropsies. […] 10 animals of each gender from each group were held to week 30 for a 4-week post-treatment recovery period.
For the toxicokinetic studies, there were ten animals of each gender in each group.

[2] = 12-month dog toxicity and toxicokinetic study; format: in vivo; details: dog, in vivo
Protocol: Blood samples were collected on Days 0, 91, 181, 268 and 358 from up to 4 animals/gender/group. Plasma samples collected on Days 91, 181, 268, as well as all plasma samples collected from the control group were not evaluated.
For toxicology assessment four dogs of each gender were included in each group. Assessments included clinical observations, body weight, and food consumption measures which were recorded periodically during the study. Ophthalmic examinations were performed during Weeks 1, 12, 25, 38, 51, and 55 (recovery period). Electrocardiograms were recorded during Weeks 2, 12, 25, 38, and 51. Clinical pathology evaluations (hematology, serum chemistry, and urinalysis) were performed during Weeks 1, 12, 25, 38, 52, and 56 (recovery period). At termination, complete necropsies were performed on all dogs and selected organs were weighed. Selected tissues from the control and 20 (15) mg/kg/day group animals and animals euthanized in extremis were examined microscopically. Sections of livers from dogs in the control and 20 (15) mg/kg/day groups were collected at both the primary and 4-week post-treatment recovery necropsies for assessment of drug metabolism enzyme (microsomal cytochrome P450) activity.

[3] = 13-week mouse toxicity and toxicokinetic study; details: Crl:CD-1(ICR) BR, in vivo, 0 day
Protocol: For toxicology assessment ten mice of each gender were placed in each group.
Ophthalmic examinations were performed during Weeks −1 and 12.

[4] = In vitro metabolism in human hepatocytes; details: male, human, 4 h, 87 μM
Protocol: Cryopreserved human hepatocytes (male) that are prepared by XenoTech, LLC (Lenexa, Kans.), are thawed on the day of use and resuspended in Waymouth's incubation media. The enzymatic activity of hepatocytes is monitored using 7-ethoxycoumarin and 7-hydroxycoumarin as substrates. […] The incubations are carried out for 4 hours with 1×10^6 viable cells/ml. […] At 0 and 4 hour, cell suspensions are extracted using two volumes of ice cold methanol. After centrifugation, the extracts are stored at −20° C. until further sample processing. The solvent in the samples are dried under a stream of nitrogen, and resuspended in methanol:water (1:1) before analysis.
The extracts of the 4 hour incubation mixture are analyzed by liquid chromatography/electrospray ionization-mass spectrometry (LC/ESI-MS) in the positive and negative ion modes to screen for possible metabolites. HPLC Methods 1 and 2 are used to find potential metabolites, and the HPLC and mass spectrometry systems are described in Table 56. The same instrumentation and methods in HPLC Method 1 are used in HPLC Method 2 with the exception that the mobile phases and gradient are changed to 0.4% HCOOH in H2O for mobile A and CH3OH for mobile phase B. The mass spectrometer is LCQ™ Ion Trap Mass Spectrometer and is in either the positive or negative electrospray mode with the ion spray set at 4.5 kV. The capillary temperature is 250° C., the nitrogen sheath gas flow rate is ˜80 unit, the auxiliary nitrogen gas flow rate is 20 unit, and the collision gas is helium.

[5] = Crl:CD-1(ICR) BR, mouse, in vivo

O=C1NCC2(c3ccc(Cl)c(Cl)c3)CC12 (stereo not drawn) [EB-10101, 5-(3,4-dichloro-phenyl)-3-aza-bicyclo[3.1.0]hexan-2-one]
AUC0-24 of metabolite relative to parent drug ([1]; Day 0): approximately 7 fold | AUC0-24 of metabolite relative to parent drug ([1]; Day 177): ≤ 14 fold | AUC(0-t) ([1]; female, females, Day 177): 88100 ng·h/mL | AUC(0-t) ([1]; male, males, Day 177): 80400 ng·h/mL | AUC0-24 of metabolite relative to parent drug, any individual animal [2]: ≤ 3.5 fold | exposure to metabolite relative to parent drug [3]: 2-5 fold | share of the metabolites formed [4]: about 63% | AUC0-24 of metabolite relative to parent drug [5]: 2-5 fold | AUC0-24 of metabolite relative to parent drug ([5]; 150 mg/kg/day): ≤ 10 fold
